Values of other authors as cited in US20200315976A1, “Encapsulation Methods and Compositions” (Prodo Laboratories, Inc., priority 2017, published 2020).

System: islets

CCOC(=O)c1ccccc1-c1c2cc(Br)c(=O)c(Br)c-2oc2c(Br)c([O-])c(Br)cc12.[K+] [Ethyl eosin, ethyl eosin]
effect on islets during conformal encapsulation: islet death
